US20260355330A1, “CELL PENETRATING PEPTIDES AND USES THEREOF” (VECTIOPEP OÜ, priority 2022, published 2026)

Experiments:
[1] = test system: liver, spleen, lung, kidney, heart and thymus of Balb/c mice; test: Biodistribution of reporter levels post-transfection of mRNA or pDNA with CPPs in vivo (tissue homogenate)
Method: FIG. 3: Biodistribution of reporter levels post-transfection of mRNA or pDNA with NFs or PFs CPPs in vivo. Reporter gene product levels were evaluated from the whole tissue homogenates collected post mortem. Results are shown as the fold change to mRNA or pDNA treated mice.
The transfection complexes (CPP/mRNA) were formed using 10 μg of mRNA mixed with each peptide at indicated charge ratios (CRs) in MQ water in a final volume of 100 μl. CRs were calculated theoretically and account for both the positive charges of the peptide and negative charges of the nucleic acid. The transfection complexes (CPP/mRNA and CPP/pDNA) were formed using 50 μg of mRNA mixed with each peptide at indicated charge ratios (CRs) in MQ water in a final volume of 168 μl. The complexes were incubated for 30 minutes at room temperature and then mixed with equal volume of 10% glucose (resulting in a final solution of 5% glucose in a total volume of 200 μl for 10 μg dose groups and 336 μl for 50 μg dose groups) and immediately injected intravenously via the tail vein.
The reporter gene (luciferase) expression levels were evaluated from the tissue homogenate post mortem 16-24 h after single injection.
In order to determine to which organs in vivo mRNAs may be delivered to with NickFect or PepFect CPPs, mRNA complexes with NF55, NF71 and PF14 were formed and injected through the tail vein of Balb/c mice (FIG. 3A). The organs were harvested 24 hours after the single injection and reporter signal was measured from whole tissue homogenates. The biodistribution of reporter levels was measured in liver, spleen, lung, kidney, heart and thymus.
In order to compare the biodistribution profiles between harvested organs when using either mRNA or pDNA as cargo, NF424 was used to transfect these 2 types of nucleic acids in vivo (FIG. 3B and Table 4).

spleen of BALB/c mice = test: In vivo delivery of mRNA with CPPs - reporter levels in the spleen
Method in brief: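 CPP/mRNA complexes were formed at the indicated charge ratios in water for 30 min at room temperature, using 10 or 50 μg mRNA, then brought to 5% glucose. Complexes were injected intravenously via the tail vein into BALB/c mice. Spleens were harvested 16 h after the single injection, and luciferase (RLU) was measured in whole-tissue homogenate.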

[2] = test system: spleen cell subtypes (T cells, macrophages, dendritic cells, rest of the lymphocytes); test: Immunophenotyping the spleen cell subtypes post-transfection of mRNA with NF55 in vivo; design: species or system mice; conditions: in words; luciferase mRNA 30 μg, CR2, i.v., 16 h post-injection
Method: FIG. 6: Reporter levels detected from spleen cells subtypes collected from NF55/mRNA treated mice. Reporter protein levels were evaluated from the sorted splenocytes: T cells, Macrophages, Dendritic cells and the rest of the lymphocytes. Results are shown as the fold change compared to untreated mice.
To analyse the cell subtypes that were transfected with the CPP, 30 μg of luciferase-encoding mRNA was complexed with the CPP at CR2 in water and injected i.v. 16 h post-injection, the spleens were collected into ice-cold dissociation buffer (1×PBS without Ca^2+ and Mg^2+ supplemented with 2 mM EDTA). Following gentle mechanical dissociation by grinding, splenic cells were strained with 100 μm cell strainer and centrifuged for 5 min at +4 °C, 300×g. A 2-minute incubation with 1 ml of RBC lysis buffer ACK (Thermo) was used for the red blood cell lysis. Flow cytometry buffer (dissociation buffer supplemented with 0.5% (w/v) BSA) was added, cells were centrifuged for 5 min at +4 °C, 300×g and counted. […]
In order to determine to which types of spleen cells mRNA were transfected in vivo, cells collected from the spleens of transfected animals were sorted according to their subtype and the reporter expression measured. mRNA encoding luciferase (mRNA (luc)) was used as a reporter model.

[3] = in words; previously reported; cited from earlier work
[4] = mRNA delivery, i.v. tail vein, 24 h after single injection, FIG. 3: fold change to mRNA or pDNA treated mice

SMILES: CCCCCCCCCCCCCCCCCC(=O)N[C@@H](C)C(=O)NCC(=O)N[C@@H](Cc1ccc(O)cc1)C(=O)N[C@@H](CC(C)C)C(=O)N[C@@H](CC(C)C)C(=O)NCC(=O)NCCC[C@H](N)C(=O)N[C@H](C(=O)N[C@@H](CC(N)=O)C(=O)N[C@@H](CC(C)C)C(=O)N[C@@H](CCCCN)C(=O)N[C@@H](C)C(=O)N[C@@H](CC(C)C)C(=O)N[C@@H](C)C(=O)N[C@@H](C)C(=O)N[C@@H](CC(C)C)C(=O)N[C@@H](C)C(=O)N[C@@H](CCCCN)C(=O)N[C@@H](C)C(=O)N[C@H](C(=O)N[C@@H](CC(C)C)C(N)=O)[C@@H](C)CC)[C@@H](C)CC [NF55]
- Organ distribution of mRNA delivery ([1]; in words, mRNA cargo): much higher than in any other organ
- Reporter level, Liver [1, 4]: 284
- Reporter level, Lung [1, 4]: 23 465
- Reporter level, Spleen [1, 4]: 79 879
- Delivery of mRNA to the spleen relative to delivery to the lungs ([1]; mRNA, 24 h after single i.v. injection): 3.5 times
- Efficacy of mRNA delivery into the spleen in vivo (spleen of BALB/c mice; in words, FIG. 5 / Table 5): delivered mRNA into the spleen in vivo with high efficacy
- Reporter levels in the spleen (RLU) (spleen of BALB/c mice; mRNA, tail vein injection, spleens harvested 16 hours after single injection, whole tissue homogenate): 124 363 RLU
- Reporter signal in spleen cell subtypes [2]: the majority of the reporter signal arose from the dendritic cells (DCs)
- pDNA delivery efficiency [3]: excellent vector for the delivery of DNA in vivo
